# Experiments:
# [1] = Stability of amorphous cinacalcet HCl on storage at ambient temperature (PXRD); format: physicochemical; settings: stored at ambient temperature in a closed bottle for 2 months, hydrochloride
# Description: Powder X-Ray powder diffraction data were obtained using a […] powder X-Ray diffractometer model X'TRA equipped with a solid state detector and a variable gonimeter. Copper radiation of 1.5418 Å was used. A round standard aluminum sample holder with round zero background, and cavity of 25(diameter)*0.5(dept) mm. Scanning parameters were in the range of 2-40°2θ and a continuous scan rate of 3°/min.
# [2] = Water content and solid form of amorphous cinacalcet HCl after exposure to humidity (KF titration, PXRD); format: physicochemical; settings: 100 percent relative humidity; for Solid form by PXRD after exposure to humidity (physical stability): hydrochloride
# Description: Powder X-Ray powder diffraction data were obtained using a SCINTAG powder X-Ray diffractometer model X'TRA equipped with a solid state detector and a variable gonimeter. Copper radiation of 1.5418 Å was used. A round standard aluminum sample holder with round zero background, and cavity of 25(diameter)*0.5(dept) mm. Scanning parameters were in the range of 2-40°2θ and a continuous scan rate of 3°/min.
# 100 mg amorphous cinacalcet HCl was spread as a thin layer, and exposed to 100 percent relative humidity for 8 days. The sample was than tested by PXRD and by Karl Fischer (“KF”) titration. Amorphous cinacalcet HCl was obtained with water content of 1.4 percent.
smiles,measurement,setting,value
"C[C@@H](NCCCc1cccc(C(F)(F)F)c1)c1cccc2ccccc12.Cl [Amorphous Cinacalcet HCl, Cinacalcet hydrochloride]",Solid form by PXRD after storage (physical stability),[1],amorphous content
same,Solid form by PXRD after storage (physical stability),[1]; listed as Amorphous cinacalcet,stable under prolonged storage
same,Water content by Karl Fischer titration after exposure to humidity,"[2]; 100 mg spread as a thin layer, 8 days",1.4%
same,Solid form by PXRD after exposure to humidity (physical stability),"[2]; 8 days, listed as Amorphous cinacalcet",stable at high humidity levels
same,Solid form by PXRD after exposure to humidity (physical stability),"[2]; 8 days, listed as amorphous cinacalcet HCl",Amorphous
same,Hygroscopicity,[2]; as shown in Example 2,non-hygroscopic

# Source: patent US7368606B2, “Amorphous cinacalcet hydrochloride and preparation thereof” (Teva Pharmaceutical Industries Ltd., priority 2005, dated 2008)
